# Measured values from PMC6316393, “Cytotoxic Sesterterpenes from Thai Marine Sponge Hyrtios erectus” (Marine Drugs, 2018).
# Where two headings read alike, the source gives them in different places.
# How the values were obtained:
# [1] = test system: HepG2 (hepatocarcinoma); test: MTT cytotoxicity assay, HepG2
# Experimental: (§1) The SI value is the ratio of IC50 of normal cell (MRC-5) and IC50 of cancer cell line.
# (§2) Cytotoxic activity for adhesive cell lines including HepG2, HeLa, HuCCA-1, A549, H69AR, KB, T47D, MDA-MB-231, and MRC-5 cell lines were evaluated with the 3-(4,5-dimethylthiazol-2-yl)-2,5-diphenyltetrazoliumbromide (MTT) assay. For the non-adhesive MOLT-3 cell line, the cytotoxicity was assessed using the 2,3-bis-(2-methoxy-4-nitro-5-sulphenyl-(2H)-tetrazolium-5-carboxanilide (XTT) assay. Etoposide and doxorubicin were used as positive controls (Table 4)
# [2] = test system: MDA-MB-231 (hormone independent breast cancer); test: MTT cytotoxicity assay, MDA-MB-231
# Experimental: as §1, §2
# [3] = test system: A549 (non-small-cell lung cancer); test: MTT cytotoxicity assay, A549
# Experimental: as §1, §2
# [4] = test system: HuCCA-1 (human chlolangiocarcinoma); test: MTT cytotoxicity assay, HuCCA-1
# Experimental: as §1, §2
# [5] = test system: HeLa (human cervical carcinoma); test: MTT cytotoxicity assay, HeLa
# Experimental: as §1, §2
# [6] = test system: MOLT-3 (acute lymphoblastic leukemia); test: XTT cytotoxicity assay, MOLT-3; conditions: for selectivity index (SI), MOLT-3: ratio of IC50 of normal cell (MRC-5) and IC50 of MOLT-3
# Experimental: as §1, §2
# [7] = MTT cytotoxicity assay, MRC-5 normal cells; conditions: human
# Experimental: as §1, §2
# [8] = test system: MRC-5 (normal embryonic lung cell); test: MTT cytotoxicity assay, MRC-5 normal cells; conditions: read-out: Cytotoxicity IC50, MRC-5; MRC-5 normal cell line, MTT assay
# Experimental: as §1, §2
# [9] = test system: L1210 (mouse lymphocytic leukemia); conditions: read-out: Cytotoxicity IC50, L1210, cited from earlier work
# [10] = test system: KB (mouth epidermal carcinoma); design: method as in PMID 8149454; conditions: previously reported; read-out: Cytotoxicity IC50, KB; cited from earlier work
# [11] = test system: KB (human epidermoid carcinoma in the mouth); test: MTT cytotoxicity assay, KB; assay type: cell-based; conditions: KB cell line
# Experimental: as §1, §2
# [12] = test system: H69AR (multidrug resistance small-cell lung cancer); test: MTT cytotoxicity assay, H69AR; assay type: cell-based; conditions: Homo sapiens, H69AR cell line
# Experimental: (§3) Cytotoxic activity for adhesive cell lines including HepG2, HeLa, HuCCA-1, A549, H69AR, KB, T47D, MDA-MB-231, and MRC-5 cell lines were evaluated with the 3-(4,5-dimethylthiazol-2-yl)-2,5-diphenyltetrazoliumbromide (MTT) assay [25, 26]. For the non-adhesive MOLT-3 cell line, the cytotoxicity was assessed using the 2,3-bis-(2-methoxy-4-nitro-5-sulphenyl-(2H)-tetrazolium-5-carboxanilide (XTT) assay [27]. Etoposide and doxorubicin were used as positive controls (Table 4)
# [13] = test system: T47D (hormone dependent breast cancer); test: MTT cytotoxicity assay, T47D; assay type: cell-based; conditions: Homo sapiens, T47D cell line
# Experimental: as §3
# [14] = test system: A549 cells; design: method as in PMID 12662110; conditions: reported in the literature; read-out: Cytotoxicity IC50, A549; cited from earlier work
# [15] = Homo sapiens, HepG2, read-out: Cytotoxicity IC50, HepG2, HepG2 cell line, MTT assay
# [16] = Homo sapiens, MDA-MB-231, read-out: Cytotoxicity IC50, MDA-MB-231, MDA-MB-231 cell line, MTT assay
# [17] = Homo sapiens, A549, read-out: Cytotoxicity IC50, A549, A549 cell line, MTT assay
# [18] = Homo sapiens, HuCC-A1, read-out: Cytotoxicity IC50, HuCCA-1, HuCCA-1 cell line, MTT assay
# [19] = Homo sapiens, HeLa, read-out: Cytotoxicity IC50, HeLa, HeLa cell line, MTT assay
# [20] = Homo sapiens, MOLT-3, read-out: Cytotoxicity IC50, MOLT-3, MOLT-3 cell line, XTT assay
# [21] = read-out: Cytotoxicity IC50, MDA-MB-231, MDA-MB-231 cell line, MTT assay
# [22] = MRC-5 cells (normal embryonic lung cells), Cytotoxicity IC50, MRC-5, MRC-5 normal cell line, MTT assay
# [23] = read-out: Cytotoxicity IC50, HeLa, HeLa cell line, MTT assay
# [24] = Homo sapiens, HepG2, read-out: Cytotoxicity IC50, HepG2
# [25] = Homo sapiens, MDA-MB-231, read-out: Cytotoxicity IC50, MDA-MB-231
# [26] = Homo sapiens, A549, read-out: Cytotoxicity IC50, A549
# [27] = Homo sapiens, HuCC-A1, read-out: Cytotoxicity IC50, HuCCA-1
# [28] = Homo sapiens, HeLa, read-out: Cytotoxicity IC50, HeLa
# [29] = Homo sapiens, MOLT-3, read-out: Cytotoxicity IC50, MOLT-3
Compound,"IC50 [1, 15]","IC50 [2, 16]","IC50 [3, 17]","IC50 [4, 18]","IC50 [5, 19]","IC50 [6, 20] [µM]",other results
4-((2R)-2-hydroxy-16-methyloctadecyl)furan-2(5H)-one [Compound 5],–,–,–,–,–,–,IC50 [1]: 107 µM; IC50 [2]: 89.3 µM; IC50 [3]: 57.2 µM; IC50 [4]: 65.6 µM; IC50 [5]: 28.8 µM; IC50 [6]: 31.8 µM
"COC1OC(=O)C=C1C(O)CC=C(C=O)CCC=C(C)CCC1=C(C)CCCC1(C)C (stereo not drawn) [Compound 3, seco-manoalide-25-methyl ether]",27.9 µM,40.1 µM,41.1 µM,24.7 µM,20 µM,15.8,–
"CC(=O)OC/C(=C\CC1OC(=O)C=C1CO)CC/C=C(\C)CCC1=C(C)CCCC1(C)C (stereo not drawn) [Compound 7, (6Z)-neomanoalide-24-acetate]",> 50 µg/mL,> 50 µg/mL,> 50 µg/mL,> 50 µg/mL,88 µM,40.1,–
"COC1OC(C2=CC(=O)OC2O)CC=C1CCC=C(C)CCC1=C(C)CCCC1(C)C (stereo not drawn) [Compound 8, 24-O-methylmanoalide]",53.5 µM,–,16.8 µM,11 µM,–,1.77,"IC50 [2, 21]: 39.5 µM; IC50 [7, 22]: 13 µM; IC50 [5, 23]: 8.42 µM; selectivity index (SI), MOLT-3 [6]: 7"
"COC1OC(C2=CC(=O)OC2O)CC=C1CCC=C(C)CCC1=C(C)CCCC1(C)C (stereo not drawn) [Compound 9, 24-O-methylmanoalide]",–,–,–,–,–,–,"IC50 ([1]; read-out: Cytotoxicity IC50, HepG2, HepG2 cell line, MTT assay): 27.9 µM; IC50 [2, 21]: 18.6 µM; IC50 ([3]; read-out: Cytotoxicity IC50, A549, A549 cell line, MTT assay): 12 µM; IC50 ([4]; read-out: Cytotoxicity IC50, HuCCA-1, HuCCA-1 cell line, MTT assay): 8.6 µM; IC50 [8]: 10.8 µM; selectivity index (SI), HeLa ([5]; ratio of IC50 of normal cell (MRC-5) and IC50 of HeLa): 7; IC50 [5, 23]: 1.51 µM; selectivity index (SI), MOLT-3 [6]: 8; IC50 ([6]; read-out: Cytotoxicity IC50, MOLT-3, MOLT-3 cell line, XTT assay): 1.3 µM"
"CC1=C(CC/C(C)=C/CC/C(=C/C[C@@H](O)C2=CC(=O)OC2)CO)C(C)(C)CCC1 [Compound 10, luffariolide B]",> 50 µg/mL,> 50 µg/mL,> 50 µg/mL,> 50 µg/mL,78.7 µM,35.5,IC50 [9]: 3.23 µM
"CC1=C(CC/C(C)=C/CCC2=CC[C@H](C3=CC(=O)O[C@H]3O)O[C@H]2O)C(C)(C)CCC1 [Compound 11, manoalide]",–,–,–,–,–,–,"IC50 [1, 24]: > 50 µg/mL; IC50 ([9]; previously reported): 0.053 µM; IC50 [2, 25]: > 50 µg/mL; IC50 [3, 26]: > 50 µg/mL; IC50 [4, 27]: 84.5 µM; IC50 [5, 28]: 87 µM; IC50 [6, 29]: 17.4 µM; IC50 [10]: 630 nM"
"CC1=C(CC/C(C)=C/CC/C(=C\CC2OC(=O)C=C2CO)CO)C(C)(C)CCC1 (stereo not drawn) [Compound 12, (6E)-neomanoalide]",> 50 µg/mL,> 50 µg/mL,> 50 µg/mL,119 µM,79.2 µM,37.8,IC50 [9]: 24.4 µM
"CC1=C(CC/C(C)=C/CC/C(=C/CC2OC(=O)C=C2CO)CO)C(C)(C)CCC1 (stereo not drawn) [Compound 13, (6Z)-neomanoalide]",88.7 µM,92 µM,114 µM,94.7 µM,59.3 µM,34.1,IC50 [9]: 13.9 µM
"CC1=C(CC/C(C)=C/CC/C(C=O)=C\C[C@@H](O)C2=CC(=O)OC2O)C(C)(C)CCC1 (stereo partly drawn) [Compound 14, seco-manoalide]",–,–,–,–,–,–,"IC50 [1, 24]: 102 µM; IC50 [2, 25]: 84.1 µM; IC50 [3, 26]: 58.1 µM; IC50 [4, 27]: 47.4 µM; IC50 [7]: 17.5 µM; IC50 [5, 28]: 21.8 µM; IC50 [6, 29]: 6.68 µM"
"CC(=O)O[C@H]1C[C@H]2[C@]3(C)CC[C@H]4C(C)(C)CCC[C@]4(C)[C@H]3C[C@@H](O)[C@]2(C)c2cocc21 [Compound 15, scalarafuran]",–,14 µM,–,49.1 µM,63.1 µM,–,IC50 [11]: 58.4 µM; IC50 [12]: 51.4 µM; IC50 [13]: 28 µM
"CC1=C(CC[C@@](C)(O)[C@@H]2CCC(=O)O2)C(C)(C)CCC1 [Compound 16, cavernosine]",> 50 µg/mL,> 50 µg/mL,> 50 µg/mL,> 50 µg/mL,77.5 µM,124,–
"CC(=O)O[C@@H]1CC2[C@@]3(C)CCCC(C)(C)C3CC[C@@]2(C)C2CCC3=C(C(=O)OC3)[C@]21C (stereo partly drawn) [Compound 17, 12-acetylscalarolide]",–,60.8 µM,–,60.8 µM,63.1 µM,–,IC50 [11]: 63.1 µM; IC50 [12]: 107 µM; IC50 [13]: 42.1 µM
"CC1(C)CCC[C@@]2(C)C1CC[C@]1(C)C2C[C@@H](O)[C@]2(C)C3COC(=O)C3=CCC12 (stereo partly drawn) [Compound 18, 12-epi-O-deacetyl-19-deoxyscalarin]",–,5.96 µM,–,41.5 µM,23.3 µM,–,IC50 [11]: 6.99 µM; IC50 [12]: 57 µM; IC50 [13]: 5.18 µM
"CC(=O)O[C@@H]1CC2[C@@]3(C)CCCC(C)(C)C3CC[C@@]2(C)C2CC=C3C(=O)OC(O)C3[C@]21C (stereo partly drawn) [Compound 19, 12-epi-scalarin]",75.5 µM,–,60.8 µM,60.8 µM,65.3 µM,13.8,–
"CC1(C)CCC[C@@]2(C)C1CC[C@]1(C)C2C[C@@H](O)[C@]2(C)C3C(=CCC12)C(=O)OC3O (stereo partly drawn) [Compound 20, 12-O-deacetyl-12-epi-scalarin]",27.4 µM,–,73.4 µM,87.1 µM,–,7.64,"IC50 [7, 22]: 71 µM; selectivity index (SI), MOLT-3 [6]: 9; IC50 [14]: 36.8 µM"
"COC(=O)c1cc2c(cn1)[nH]c1ccc(O)cc12 [Compound 23, variabine B]",> 50 µg/mL,–,> 50 µg/mL,> 50 µg/mL,> 50 µg/mL,78,–
"COc1cccc2c1C(=O)c1c(O)c3c(c(O)c1C2=O)C[C@@](O)(C(=O)CO)C[C@@H]3O[C@H]1C[C@H](N)[C@H](O)[C@H](C)O1 [Doxorubicin, reference compound]",0.36 ± 0.05 µM,1.64 ± 0.17 µM,0.35 ± 0.02 µM,0.4 ± 0.03 µM,0.19 µM,–,"IC50 [11]: 1.64 ± 0.15 µM; IC50 [7, 22]: 3.16 ± 0.1 µM"
"COc1cc([C@@H]2c3cc4c(cc3[C@@H](O[C@@H]3O[C@@H]5CO[C@@H](C)O[C@H]5[C@H](O)[C@H]3O)[C@H]3COC(=O)[C@H]23)OCO4)cc(OC)c1O [Etoposide, reference compound]",–,–,–,–,–,0.04 ± 0.01,–
